Measurements from US20260014184A1, “ADENOSINE DERIVATIVES FOR USE IN THE TREATMENT OF NEURODEGENERATIVE DISORDERS AND CANCER” (UNIVERSITY COLLEGE CARDIFF CONSULTANTS LIMITED, priority 2022, published 2026).

Tests used:
[1] = test system: ubiquitin Ser65 phosphorylation; experiment: Ubiquitin Ser65 phosphorylation in astrocytes with or without valinomycin; format: cell-based
Description: Briefly, astrocytes were treated with 50 μM of the nucleobase kinetin, nucleosides 9a and 9c or DMSO for 24 h and 5 h prior to lysis, the samples were treated with 50 nM valinomycin, a mitochondrial uncoupler.

TcPINK1 = molecular target: T1, TcPINK1 (Tribolium castaneum, UniProt D6WMX4); experiment: PINK1 in vitro kinase assay with parkin or ubiquitin as substrates; format: biochemical; details: increasing concentrations, max 100 μM; human parkin or ubiquitin as substrates
T1 construct: purchased MRC PPU Reagents and Services (University of Dundee, U.K.)
T1 sequence (D6WMX4 6-570): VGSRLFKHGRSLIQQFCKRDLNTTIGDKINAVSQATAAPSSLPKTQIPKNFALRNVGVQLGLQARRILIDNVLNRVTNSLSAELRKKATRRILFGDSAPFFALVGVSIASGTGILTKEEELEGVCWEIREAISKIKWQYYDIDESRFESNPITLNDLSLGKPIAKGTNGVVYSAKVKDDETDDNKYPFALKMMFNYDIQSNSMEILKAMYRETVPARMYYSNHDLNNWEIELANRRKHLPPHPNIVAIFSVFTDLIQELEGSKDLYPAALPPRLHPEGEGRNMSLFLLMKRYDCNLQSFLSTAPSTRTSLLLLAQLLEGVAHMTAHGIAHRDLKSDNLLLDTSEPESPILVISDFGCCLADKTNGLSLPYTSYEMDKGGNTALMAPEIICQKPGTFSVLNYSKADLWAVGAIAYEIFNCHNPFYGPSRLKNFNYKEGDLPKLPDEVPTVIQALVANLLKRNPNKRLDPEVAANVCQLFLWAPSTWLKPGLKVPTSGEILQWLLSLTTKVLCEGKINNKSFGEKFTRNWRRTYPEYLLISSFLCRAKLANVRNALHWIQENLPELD
Description: This assay was carried out by the MRC PPU Reagents and Services (University of Dundee, U.K.). The assay was conducted as follows: TcPINK1 (5-20mU diluted in 50 mM Tris pH 7.5, 0.1 mM EGTA, 1 mg/ml BSA, 0.1% mercaptoethanol) is assayed against GST PARK2 TV3 or Ubiquitin-His in a final volume of […] containing 50 mM Tris pH 7.5, 0.1 mM EDTA, 10 mM DTT, protein substrate (0.3 mg/ml of GST PARK2 TV3 or 1 mg/ml of Ubiquitin-His, 10 mM magnesium acetate and 0.1 mM [33P-γ-ATP](50-1000 cpm/pmole) in the presence of the relevant small molecule (serial dilution with the highest concentration being 100 μM) and incubated for 30 min at room temperature. Assays are stopped by addition of 5 μl of 0.5 M (3%) orthophosphoric acid and then harvested onto P81 Unifilter plates with a wash buffer of 50 mM orthophosphoric acid.
To examine this further, we ran in vitro kinase assays employing recombinant and constitutively active Tribolium castaneum PINK1 (TcPINK1) and either human parkin or ubiquitin as substrates in the presence of increasing concentrations (max 100 μM) of kinetin riboside, benzyladenosine 9c or its triphosphate derivative (FIG. 6). […]

PINK1 = molecular target: T2, PINK1 (Homo sapiens, UniProt Q9BXM7); details: evidenced by parkin Ser65 phosphorylation; cited from earlier work
T2 construct: HeLa cells, which express PINK1 endogenously; endogenous in cells; host or cells: HeLa cells transiently transfected with parkin

[2] = test system: HeLa cells transfected with YFP-parkin; experiment: TMRM fluorescence (mitochondrial membrane potential); format: cell-based; details: pre-treatment 50 μM 24 h; data not shown
Description: For assessing tetramethylrhodamine methyl ester perchlorate (TMRM) fluorescence, cell media was removed and replaced with cell media consisting of 5 nM TMRM (ThermoFisher) and 10 μg/ml Hoechst 33258 stain for 30 mins in the dark at 37° C. to allow incorporation of TMRM into mitochondria. Following PBS washes, FluoroBrite DMEM (Gibco) media was added to cells, followed by subsequent imaging using a Zeiss LSM800 microscope at 37° C. with 5% CO2.

OPA1 = OPA1 cleavage immunoblot (mitochondrial membrane depolarization) in parkin-transfected HeLa cells; format: cell-based; details: 50 μM 24 h, then 10 μM CCCP 3 h
Description: Both HeLa and parkin-overexpressed HeLa cells were maintained in DMEM high glucose (Gibco), 10% FBS (Sigma-Aldrich) at 37° C. with 5% CO2. For experiments, cells were counted and seeded into a range of culture plates, depending on the experiment, cell counting was done using the Cellometer Auto T4 with TrypanBlue (Gibco). […] Alternatively, HeLa cells were seeded in well plates and then transfected with […] of parkin cDNA using the PEI method once the plated cells reached 60% confluency. After 6 hours, the media was changed. Sub-culturing was done when the cells reached ˜90% confluency.
Cell culture with 70-80% confluency was lysed as follows: cells were washed with Phosphate Buffer Saline (PBS) (Sigma). 150 μl of lysis buffer was used on each well containing either: • 50 mM Tris-HCl pH 7.5, 1 mM EDTA, 1 mM EGTA, 0.27 M sucrose, 1 mM Na3VO4, 50 mM NaF, 5 mM Na pyrophosphate and fresh 1 mM benzamidine, 1% NP-40 and […]; or • 50 mM Tris-HCl pH 7.5, 1 mM EDTA, 1 mM EGTA, 10 mM Na β-glycerophosphate, 0.27 M sucrose, 1 mM Na3VO4, 50 mM NaF, 10 mM Na pyrophosphate with fresh 1 mM benzamidine, 1% Triton X-100, complete EDTA-free Protease Inhibitor, Phosphatase inhibitor cocktail 3 and 100 μM of 2-chloroacetamide.
The cells were scrapped and transferred to the microtube and eventually spun down at 12,000 rpm for 15 minutes at 4° C. Finally, the supernatant was transferred to the new microtubes and stored at −20° C. Protein concentration was measured using Bradford Assay. Serial concentrations 0.125; 0.25; 0.5 and 1 mg/ml of Bovine Serum Albumin (BSA) (Sigma Aldrich) were used as a standard. Samples were boiled at 90° C. for 5 minutes in SDS sample loading buffer.
To explore this, we first treated parkin-transfected HeLa cells for 24 h with 50 μM kinetin, kinetin riboside or kinetin riboside ProTide, a monophosphate prodrug of kinetin riboside.

T2 sequence (Q9BXM7 78-581): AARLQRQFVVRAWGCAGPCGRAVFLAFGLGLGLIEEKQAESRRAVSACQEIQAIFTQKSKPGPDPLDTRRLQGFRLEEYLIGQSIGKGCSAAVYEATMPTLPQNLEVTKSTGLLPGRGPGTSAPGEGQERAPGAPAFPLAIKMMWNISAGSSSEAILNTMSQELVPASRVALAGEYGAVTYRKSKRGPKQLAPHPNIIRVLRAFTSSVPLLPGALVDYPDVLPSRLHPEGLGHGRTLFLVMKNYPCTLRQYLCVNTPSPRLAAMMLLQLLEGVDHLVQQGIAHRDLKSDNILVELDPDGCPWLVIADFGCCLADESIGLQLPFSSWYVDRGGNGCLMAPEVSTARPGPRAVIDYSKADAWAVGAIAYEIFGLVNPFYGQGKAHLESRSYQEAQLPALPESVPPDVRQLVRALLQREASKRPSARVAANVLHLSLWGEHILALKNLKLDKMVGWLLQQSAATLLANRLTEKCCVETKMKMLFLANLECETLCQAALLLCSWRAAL

| SMILES | ubiquitin Ser65 phosphorylation after pre-treatment followed by valinomycin, compared to valinomycin alone ([1]; 50 μM 24 h, 50 nM valinomycin for 5 h) | ubiquitin Ser65 phosphorylation, compound alone ([1]; 50 μM, 24 h) | effect on TcPINK1 kinase activity (covalent inhibition) (TcPINK1) | CCCP-independent activation of PINK1 in cells, compared to kinetin (PINK1) | prevention of membrane potential collapse caused by niclosamide and CCCP [2] | prevention of OPA1 cleavage by pre-treatment (OPA1) |
| --- | --- | --- | --- | --- | --- | --- |
| OC[C@H]1O[C@@H](n2cnc3c(NCc4ccccc4)ncnc32)[C@H](O)[C@@H]1O [9c, (2R,3R,4S,5R)-2-(6-(benzylamino)-9H-purin-9-yl)-5-(hydroxymethyl)tetrahydrofuran-3,4-diol] | significant suppression of ubiquitin Ser65 phosphorylation | increased phosphorylation | unlikely to be PINK1 covalent inhibitors |  |  |  |
| OC[C@H]1O[C@@H](n2cnc3c(NCc4ccco4)ncnc32)[C@H](O)[C@@H]1O [kinetin riboside, N^6-(2-furanylmethyl) adenosine] |  |  | unlikely to be PINK1 covalent inhibitors | more potent CCCP-independent activation of PINK1 | did not prevent the membrane potential collapse | did not prevent this effect |
